How the values were obtained:
A2780 cells = test: CellTiter-Glo in vitro cell proliferation assay, Example 8; assay type: cell-based, Human; conditions: Homo sapiens; A2780, Ovarian, 72 hours; read-out: Mean IC50
Summary of the method: (§1)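 Test compounds span 0.0075–100 μM, delivered in DMSO one day after seeding. Cultures are kept 72 h at 37 °C in humidified air before a CellTiter-Glo luminescent readout taken after 60 min at room temperature.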

A2780CP cells = test: as above; assay type: cell-based, Human; conditions: Homo sapiens, A2780C/P, Ovarian, 72 hours, read-out: Mean IC50
Summary of the method: as §1

A498 cells = test: as above; assay type: cell-based, Human; conditions: Homo sapiens; A498, Renal, 72 hours; read-out: Mean IC50
Summary of the method: as §1

AN3CA cells = test: as above; assay type: cell-based, Human; conditions: Homo sapiens, AN3-CA, Endometrial, 72 hours, read-out: Mean IC50
Summary of the method: as §1

ASPC-1 cells = test: as above; assay type: cell-based, Human; conditions: Homo sapiens, ASPC1; ASPC-1, Pancreatic, 72 hours; read-out: Mean IC50
Summary of the method: as §1

BxPC-3 cells = test: as above; assay type: cell-based, Human; conditions: Homo sapiens; BxPC-3, Pancreatic, 72 hours; read-out: Mean IC50
Summary of the method: as §1

DOHH-2 cells = test: as above; assay type: cell-based, Human; conditions: Homo sapiens; DOHH-2, Diffuse Large B-Cell Lymphoma, 72 hours; read-out: Mean IC50
Summary of the method: as §1

H1650 (EGFR mut) cells = test: as above; assay type: cell-based, Human; conditions: Homo sapiens, NCI-H1650, Non Small Cell Lung, 72 hours, read-out: Mean IC50
Summary of the method: as §1

H1975 (EGFR mut) cells = test: as above; assay type: cell-based, Human; conditions: Homo sapiens, NCI-H1975, Non Small Cell Lung, 72 hours, read-out: Mean IC50
Summary of the method: as §1

H929 cells = test: as above; assay type: cell-based, Human; conditions: NCI-H929; H929, Human Myeloma, 72 hours; read-out: Mean IC50
Summary of the method: as §1

HCC70 cells = test: as above; assay type: cell-based, Human; conditions: Homo sapiens; HCC70, Triple Negative Breast, 72 hours; read-out: Mean IC50
Summary of the method: as §1

HEC-1a cells = test: as above; assay type: cell-based, Human; conditions: Homo sapiens, Endometrial, 72 hours, read-out: Mean IC50
Summary of the method: as §1

JIM1 cells = test: as above; assay type: cell-based, Human; conditions: JIM1, Human Myeloma, 72 hours; read-out: Mean IC50
Summary of the method: as §1

KHM-1B cells = test: as above; assay type: cell-based, Human; conditions: Human Myeloma, 72 hours, read-out: Mean IC50
Summary of the method: as §1

KMM-1 cells = test: as above; assay type: cell-based, Human; conditions: KMM-1, Human Myeloma, 72 hours; read-out: Mean IC50
Summary of the method: as §1

KMS-27 cells = test: as above; assay type: cell-based, Human; conditions: KMS-27, Human Myeloma, 72 hours; read-out: Mean IC50
Summary of the method: as §1

KMS-34 cells = test: as above; assay type: cell-based, Human; conditions: KMS-34, Human Myeloma, 72 hours; read-out: Mean IC50
Summary of the method: as §1

MDA-MB-231 cells = test: as above; assay type: cell-based, Human; conditions: Homo sapiens; MDA-MB-231, Triple Negative Breast, 72 hours; read-out: Mean IC50
Summary of the method: as §1

MDA-MB-468 cells = test: as above; assay type: cell-based, Human; conditions: Homo sapiens; MDA-MB-468, Triple Negative Breast, 72 hours; read-out: Mean IC50
Summary of the method: as §1

MIA PaCa-2 cells = test: as above; assay type: cell-based, Human; conditions: Homo sapiens; MIA PaCa-2, Pancreatic, 72 hours; read-out: Mean IC50
Summary of the method: as §1

MM.1s cells = test: as above; assay type: cell-based, Human; conditions: MM1.S; MM.IS, Human Myeloma, 72 hours; read-out: Mean IC50
Summary of the method: as §1

MOLP-8 cells = test: as above; assay type: cell-based, Human; conditions: MOLP-8, Human Myeloma, 72 hours; read-out: Mean IC50
Summary of the method: as §1

OCI-LY3 cells = test: as above; assay type: cell-based, Human; conditions: Homo sapiens; OCI-LY3, Diffuse Large B-Cell Lymphoma, 72 hours; read-out: Mean IC50
Summary of the method: as §1

SiHA cells = test: as above; assay type: cell-based, Human; conditions: Homo sapiens, Squamous, 72 hours, read-out: Mean IC50
Summary of the method: as §1

[1] = test system: Human Myeloma, Human Lymphoma, Solid Human tumor and Jeko-1 tumor cell lines; test: CellTiter-Glo in vitro cell proliferation assay, Example 8, whole panel; assay type: cell-based; conditions: 72 hours; cell lines of Table 14
Experimental: In this Example, in vitro cell proliferation assays were performed using: (1) Human Myeloma tumor cell lines; (2) Human Lymphoma tumor cell lines; (3) Solid Human tumor cell lines; and (4) Parental, Lenalidomide resistant and Bortezomib resistant Jeko-1 Mantle cell Lymphoma tumor cell lines. The compounds tested were three diharmaline compounds, namely the 518B562 (or simply 562), 560, and 561 compounds. In addition, a monoharmaline product designated as 518F014 was also tested. This monoharmaline product had the following structure:
Each proliferation assay was carried out as follows. The test cells were plated in growth media using a 384-well microtiter plate at 50 μL volume. The cells were incubated for 24 hours at 37° C. in a humidified incubator. After 24 hours of incubation, the test compounds were added to the test wells in DSMO solvent, at concentrations ranging from 0.0075-100 μM. Control wells received equal volumes of DSMO, without compound. Following drugging, the cells were incubated for 72 hours at 37° C. in a humidified incubator. After this exposure, 100 μL of a 1:1 mixture of sterile water and CellTiter-Glo® reagent (Promega) was added to each well. The plates were then incubated for 60 minutes at room temperature, followed by recording the luminescence value of each well using a luminometer as a measure of cell proliferation.

IC50 (A2780 cells)	IC50 (A2780CP cells)	IC50 (ASPC-1 cells)	IC50 (BxPC-3 cells)	IC50 (H1650 (EGFR mut) cells)	IC50 (H1975 (EGFR mut) cells)	IC50 (H929 cells)	IC50 (MDA-MB-231 cells)	IC50 (MDA-MB-468 cells)	IC50 (MIA PaCa-2 cells)	SMILES	IC50 (A498 cells)	IC50 (AN3CA cells)	IC50 (DOHH-2 cells)	IC50 (HCC70 cells)	IC50 (HEC-1a cells)	IC50 (JIM1 cells)	IC50 (KHM-1B cells)	IC50 (KMM-1 cells)	IC50 (KMS-27 cells)	IC50 (KMS-34 cells)	also measured
2.03 µM	4.4 µM	3.62 µM	2.62 µM	2.95 µM	4.27 µM	4.3 µM	3.89 µM	3.75 µM	3.38 µM	COc1ccc2c3c([nH]c2c1)C(CC(CC1=NCCc2c1[nH]c1cc(OC)ccc21)c1ccccc1)=NCC3 [compound 560]	3.34 µM	2.71 µM	6.39 µM	5.94 µM	5.1 µM	5.17 µM	7.58 µM	5.3 µM	3.94 µM	6.67 µM	IC50 (MM.1s cells): 2.26 µM; IC50 (MOLP-8 cells): 2.89 µM; IC50 (OCI-LY3 cells): 2.87 µM; IC50 (SiHA cells): 11.6 µM; IC50 values compared with the monoharmaline 518F014 compound [1]: significantly lower IC50 values
1.14 µM	2.28 µM	2.15 µM	1.6 µM	2.3 µM	1.84 µM	4.5 µM	1.62 µM	2.05 µM	1.81 µM	COc1ccc2c3c([nH]c2c1)C(CC(CC1=NCCc2c1[nH]c1cc(OC)ccc21)c1ccc(O)c(OC)c1)=NCC3 [compound 562]	1.76 µM	1.79 µM	2.42 µM	3.45 µM	4.75 µM	3.95 µM	3.37 µM	4.04 µM	2.1 µM	5.45 µM	IC50 (MM.1s cells): 1.67 µM; IC50 (MOLP-8 cells): 1.38 µM; IC50 (OCI-LY3 cells): 2.38 µM; IC50 (SiHA cells): 5.13 µM; IC50 values compared with the monoharmaline 518F014 compound [1]: significantly lower IC50 values
